Results taken from BigSolDB 2.1.

Conditions: in NMP

CC(C)Oc1ccc2c(=O)c(-c3ccccc3)coc2c1
Conditions | solubility (mole fraction)
278.15 K | 0.0605
283.15 K | 0.0683
288.15 K | 0.078
293.15 K | 0.0892
298.15 K | 0.101
303.15 K | 0.113
308.15 K | 0.129
313.15 K | 0.146
318.15 K | 0.165
323.15 K | 0.186
